From patent US9802974B2, “Synthesis of diverse glycosylphosphatidylinositol glycans from Toxoplasma gondii and their application as vaccines and diagnostics” (Max-Planck-Gesellschaft zur Förderung der Wissenschaften …, priority 2012, dated 2017)

System: T. gondii tachyzoites
Assay: Immunofluorescence confocal microscopy of T. gondii tachyzoites with serum of mice immunized with the compound 4-CRM197 conjugate
Assay type: binding, Toxoplasma gondii
Conditions: paraformaldehyde-fixed tachyzoites, pooled serum from immunized mice, FIG. 13
Procedure: Full circle in (C) indicates the apical and half circle the basolateral end of the parasite (white bar=5 μm).
Extracellular tachyzoites collected from cell culture supernatants were fixed with 4% (w/v) paraformaldehyde in PBS for 30 min. Cells were washed three times with PBS, and incubated for 1 h with mice sera raised against compounds 3 or 4 diluted to 100 in PBS, 10% BSA. Cells were washed three times with PBS before incubated for 1 h with secondary FITC-conjugated anti-mouse immunoglobulin antibody (DakoCytomation, Glostrup) containing 10% BSA and washed finally three times with PBS. After three final washes with PBS, aliquot were spotted on microscope slides followed by a glass cover slides, mounted in Fluoroprep (Dako) and recorded by using a 100× Plan-NeoFluar oil objective lens with NA 1.30 using an Axiophot microscop (Zeiss).
In contrast, antibodies binding to the parasite in sera of mice before immunization could not be detected. […] Tachyzoites secrete factors for attachment, invasion and formation of the parasitophorous vacuole, which is surrounding and protecting the parasite inside the host cell from endocytosis, in a regulated fashion from the apical region. […]

“6-O-(aminoethyl phosphono)-α-D-mannopyranosyl-(1→2)-α-D-mannopyranosyl-(1→6)-4-O-(α-D-glucopyranosyl-(1→4)-2-deoxy-2-acetamido-β-D-galactopyranosyl)-α-D-manno-pyranosyl-(1→4)-2-amino-2-deoxy-α-D-glucopyranosyl-(1→6)-1-O-(thiohexyl phosphono)-D-myo-inositol [compound 4]” was tested. Which “recognition of the natural GPI antigen on the T. gondii parasite by antibodies raised against the substance” value did it give?
Its value is “bound to the surface of the parasite”.
